In patent publication US20110039721A1, “METHOD FOR PREDICTION ABOUT CARCINOGENICITY OF SUBSTANCE IN RODENT” (Chemicals Evaluation and Research Institute, priority 2007, published 2011):
Like-named read-outs stand apart in the source and are kept apart here.

Tests used:
rodent = details: cited from earlier work
[1] = classification of the substance (M+/M−); cited from earlier work
[2] = tested on: mRNA expressed from the genes (A) to (D) in rat liver; assay: Behavior of genes (mRNA expression level, oligo-DNA microarray) in rat liver after 28-day oral administration; type: in vivo
Summary of the method: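 Liver mRNA levels were compared with matched vehicle groups, with a shift of at least 1.5-fold up or down deemed significant unless its direction disagreed with other carcinogens. Test substances were dosed orally by gavage daily for 28 days to 5-week-old male F344 rats, four per group.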

liver = details: cited from earlier work
[3] = gene group (A), Unigene No. Rn.167075, mRNA vs vehicle control group
[4] = gene group (C), Unigene No. Rn.120914, mRNA vs vehicle control group

In the case of Cc1c(C)c2c(c(C)c1O)CC[C@@](C)(CCC[C@H](C)CCC[C@H](C)CCCC(C)C)O2 [TS062, α-Tocopherol (Vitamin E)], the Carcinogenicity (rodent; in vivo) is given as “C−”, the “Mutagenicity by Ames test” value [1] is given as “M−” and the “Behavior of gene caused by administration of chemical substance, Gene No. 154” value ([2]; rat, in vivo) is given as “−”. The “Behavior of gene caused by administration of chemical substance, Gene No. 533” value ([2]; rat, in vivo) was “−”, the “Behavior of gene caused by administration of chemical substance, Gene No. 725” value ([2]; rat, in vivo) was “−” and the “Behavior of gene caused by administration of chemical substance, Gene No. 813” value ([2]; rat, in vivo) was “−”. For the same molecule, the “Behavior of gene caused by administration of chemical substance, Gene No. 893” value ([2]; rat, in vivo) was “−”, the “Behavior of gene caused by administration of chemical substance, Gene No. 1119” value ([2]; rat, in vivo) was “−” and the “Behavior of gene caused by administration of chemical substance, Gene No. 1131” value ([2]; rat, in vivo) was “−”. For the same molecule, the “Behavior of gene caused by administration of chemical substance, Gene No. 1163” value ([2]; rat, in vivo) was “+”, the “Behavior of gene caused by administration of chemical substance, Gene No. 1334” value ([2]; rat, in vivo) was “−” and the “Behavior of gene caused by administration of chemical substance, Gene No. 1494” value ([2]; rat, in vivo) was “−”. The “Behavior of gene caused by administration of chemical substance, Gene No. 1562” value ([2]; rat, in vivo) was “−”, the “Behavior of gene caused by administration of chemical substance, Gene No. 1741” value ([2]; rat, in vivo) was “−” and the “Behavior of gene caused by administration of chemical substance, Gene No. 1993” value ([2]; rat, in vivo) was “−”. The “Behavior of gene caused by administration of chemical substance, Gene No. 2026” value ([2]; rat, in vivo) was “−”, the “Behavior of gene caused by administration of chemical substance, Gene No. 2045” value ([2]; rat, in vivo) was “−” and the “Behavior of gene caused by administration of chemical substance, Gene No. 2203” value ([2]; rat, in vivo) was “−”. The “Behavior of gene caused by administration of chemical substance, Gene No. 2494” value ([2]; rat, in vivo) was “−”, the “Behavior of gene caused by administration of chemical substance, Gene No. 2546” value ([2]; rat, in vivo) was “−” and the “Behavior of gene caused by administration of chemical substance, Gene No. 3776” value ([2]; rat, in vivo) was “−”. The “Behavior of gene caused by administration of chemical substance, Gene No. 3929” value ([2]; rat, in vivo) was “−”, the “Behavior of gene caused by administration of chemical substance, Gene No. 4095” value ([2]; rat, in vivo) was “−” and the “Behavior of gene caused by administration of chemical substance, Gene No. 4218” value ([2]; rat, in vivo) was “−”. The “Behavior of gene caused by administration of chemical substance, Gene No. 4846” value ([2]; rat, in vivo) was “−”, the “Behavior of gene caused by administration of chemical substance, Gene No. 4973” value ([2]; rat, in vivo) was “−” and the “Behavior of gene caused by administration of chemical substance, Gene No. 5600” value ([2]; rat, in vivo) was “−”. For the same molecule, the “Behavior of gene caused by administration of chemical substance, Gene No. 5634” value ([2]; rat, in vivo) was “−”, the “Behavior of gene caused by administration of chemical substance, Gene No. 5726” value ([2]; rat, in vivo) was “−” and the “Behavior of gene caused by administration of chemical substance, Gene No. 5878” value ([2]; rat, in vivo) was “−”. For the same molecule, the “Behavior of gene caused by administration of chemical substance, Gene No. 6026” value ([2]; rat, in vivo) was “−”, the “Behavior of gene caused by administration of chemical substance, Gene No. 6182” value ([2]; rat, in vivo) was “−” and the “Behavior of gene caused by administration of chemical substance, Gene No. 6303” value ([2]; rat, in vivo) was “−”. The “Behavior of gene caused by administration of chemical substance, Gene No. 6620” value ([2]; rat, in vivo) was “−”, the “Behavior of gene caused by administration of chemical substance, Gene No. 6742” value ([2]; rat, in vivo) was “+” and the Liver carcinogenicity (liver; in vivo) was “Cr−”.

For ClC(Cl)=C(Cl)Cl [TS066, Tetrachloroethylene], the Carcinogenicity (rodent; classification of the substance (C+/C−)) is given as “C+”, the “Mutagenicity by Ames test” value [1] is given as “M−” and the “Behavior of gene caused by administration of chemical substance, Gene No. 4846” value ([2]; gene group (A), Unigene No. Rn.144554, mRNA vs vehicle control group) is given as “−”. For the same molecule, the “Behavior of gene caused by administration of chemical substance, Gene No. 2026” value [2, 3] was “−”, the “Behavior of gene caused by administration of chemical substance, Gene No. 4218” value [2, 3] was “−” and the “Behavior of gene caused by administration of chemical substance, Gene No. 6182” value ([2]; gene group (A), Unigene No. Rn.5834, mRNA vs vehicle control group) was “+”. The “Behavior of gene caused by administration of chemical substance, Gene No. 5600” value ([2]; gene group (A), Unigene No. Rn.9836, mRNA vs vehicle control group) was “−”, the “Behavior of gene caused by administration of chemical substance, Gene No. 1494” value ([2]; gene group (B), Unigene No. Rn.1430, mRNA vs vehicle control group) was “−” and the “Behavior of gene caused by administration of chemical substance, Gene No. 2045” value ([2]; gene group (B), Unigene No. Rn.19329, mRNA vs vehicle control group) was “+”. For the same molecule, the “Behavior of gene caused by administration of chemical substance, Gene No. 2203” value ([2]; gene group (B), Unigene No. Rn.21240, mRNA vs vehicle control group) was “−”, the “Behavior of gene caused by administration of chemical substance, Gene No. 533” value ([2]; gene group (C), Unigene No. Rn.106184, mRNA vs vehicle control group) was “+” and the “Behavior of gene caused by administration of chemical substance, Gene No. 725” value ([2]; gene group (C), Unigene No. Rn.108075, mRNA vs vehicle control group) was “−”. For the same molecule, the “Behavior of gene caused by administration of chemical substance, Gene No. 1163” value ([2]; gene group (C), Unigene No. Rn.11766, mRNA vs vehicle control group) was “−”, the “Behavior of gene caused by administration of chemical substance, Gene No. 4973” value ([2]; gene group (C), Unigene No. Rn.118529, mRNA vs vehicle control group) was “−” and the “Behavior of gene caused by administration of chemical substance, Gene No. 4095” value ([2]; gene group (C), Unigene No. Rn.119024, mRNA vs vehicle control group) was “−”. For the same molecule, the “Behavior of gene caused by administration of chemical substance, Gene No. 1334” value [2, 4] was “−”, the “Behavior of gene caused by administration of chemical substance, Gene No. 6620” value [2, 4] was “−” and the “Behavior of gene caused by administration of chemical substance, Gene No. 6303” value ([2]; gene group (C), Unigene No. Rn.123063, mRNA vs vehicle control group) was “−”. The “Behavior of gene caused by administration of chemical substance, Gene No. 5878” value ([2]; gene group (C), Unigene No. Rn.143213, mRNA vs vehicle control group) was “−”, the “Behavior of gene caused by administration of chemical substance, Gene No. 1131” value ([2]; gene group (C), Unigene No. Rn.144946, mRNA vs vehicle control group) was “−” and the “Behavior of gene caused by administration of chemical substance, Gene No. 1562” value ([2]; gene group (C), Unigene No. Rn.14744, mRNA vs vehicle control group) was “−”. The “Behavior of gene caused by administration of chemical substance, Gene No. 1741” value ([2]; gene group (C), Unigene No. Rn.1647, mRNA vs vehicle control group) was “−”, the “Behavior of gene caused by administration of chemical substance, Gene No. 893” value ([2]; gene group (C), Unigene No. Rn.164817, mRNA vs vehicle control group) was “−” and the “Behavior of gene caused by administration of chemical substance, Gene No. 6026” value ([2]; gene group (C), Unigene No. Rn.167685, mRNA vs vehicle control group) was “−”. The “Behavior of gene caused by administration of chemical substance, Gene No. 154” value ([2]; gene group (C), Unigene No. Rn.185941, mRNA vs vehicle control group) was “−”, the “Behavior of gene caused by administration of chemical substance, Gene No. 1993” value ([2]; gene group (C), Unigene No. Rn.18728, mRNA vs vehicle control group) was “−” and the “Behavior of gene caused by administration of chemical substance, Gene No. 813” value ([2]; gene group (C), Unigene No. Rn.201760, mRNA vs vehicle control group) was “−”. For the same molecule, the “Behavior of gene caused by administration of chemical substance, Gene No. 2494” value ([2]; gene group (C), Unigene No. Rn.23969, mRNA vs vehicle control group) was “−”, the “Behavior of gene caused by administration of chemical substance, Gene No. 2546” value ([2]; gene group (C), Unigene No. Rn.24561, mRNA vs vehicle control group) was “−” and the “Behavior of gene caused by administration of chemical substance, Gene No. 3776” value ([2]; gene group (C), Unigene No. Rn.43232, mRNA vs vehicle control group) was “−”. The “Behavior of gene caused by administration of chemical substance, Gene No. 3929” value ([2]; gene group (C), Unigene No. Rn.4620, mRNA vs vehicle control group) was “−”, the “Behavior of gene caused by administration of chemical substance, Gene No. 1119” value ([2]; gene group (C), Unigene No. Rn.9757, mRNA vs vehicle control group) was “−” and the “Behavior of gene caused by administration of chemical substance, Gene No. 6742” value ([2]; gene group (C), Unigene No. Rn.9779, mRNA vs vehicle control group) was “−”. For the same molecule, the “Behavior of gene caused by administration of chemical substance, Gene No. 5634” value ([2]; gene group (C), Unigene No. Rn.9862, mRNA vs vehicle control group) was “−”, the “Behavior of gene caused by administration of chemical substance, Gene No. 5726” value ([2]; gene group (D), Unigene No. Rn.9939, mRNA vs vehicle control group) was “−” and the Liver carcinogenicity (liver; classification of the substance (Cr+/Cr−)) was “Cr−”.
